Data published in patent publication US20070213359A1 (ACADIA Pharmaceuticals Inc., priority 2005, published 2007).
Like-named read-outs stand apart in the source and are kept apart here.

Experiments:
GHSR1a receptor = molecular target: T1, GHSR1a receptor (Homo sapiens, UniProt Q92847); experiment: 125I-Ghrelin binding assay; settings: displacement of 125I-ghrelin (0.053 nM), membranes of HEK293 cells transfected with GHSR1a; Cheng-Prussoff; '—' not defined; read-out: Binding pKi (converted)
T1 construct: expressed in transfected cells; host or cells: HEK293 (membranes)
T1 sequence (Q92847 whole entry): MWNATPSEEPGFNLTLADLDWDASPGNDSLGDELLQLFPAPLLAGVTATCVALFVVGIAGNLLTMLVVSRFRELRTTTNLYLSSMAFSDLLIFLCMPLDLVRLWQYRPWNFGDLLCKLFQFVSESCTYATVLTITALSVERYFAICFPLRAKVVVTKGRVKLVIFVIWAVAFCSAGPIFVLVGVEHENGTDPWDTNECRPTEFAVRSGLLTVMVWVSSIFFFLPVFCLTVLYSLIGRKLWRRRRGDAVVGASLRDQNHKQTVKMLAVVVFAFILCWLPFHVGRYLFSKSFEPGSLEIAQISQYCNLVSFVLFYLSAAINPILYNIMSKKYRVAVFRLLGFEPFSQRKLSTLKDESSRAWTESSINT

Ghrelin receptor = Ghrelin receptor (Homo sapiens, UniProt Q92847); experiment: Receptor Selection and Amplification Technology (R-SAT) assay; format: cell-based; design: expressed in transfected cells; host or cells: NIH3T3; settings: for IC50: '—' not defined (nd used separately), read-out: RSAT pIC50 (converted); for Emax: read-out: RSAT Eff(%)
Sequence of Ghrelin receptor (Q92847 whole entry): as above

[1] = negative logarithm of ligand concentration causing 50% inhibition of constitutive receptor response, transfected NIH3T3 cells
[2] = percent inhibition at saturating ligand, normalized to reference ligand Substance P analog = 100%

Row | SMILES | Ki (GHSR1a receptor) [nM] | IC50 (Ghrelin receptor; [1]) [nM] | Emax (Ghrelin receptor; [2]) [%] | RSAT Eff(%) (Ghrelin receptor; [2]) | Emax (Ghrelin receptor) [%] | IC50 (Ghrelin receptor; […]) [nM]
1 | CC(=O)c1cn(CCCN2C3CCC2CC(CC(=O)c2ccccc2)C3)c2c(C)cccc12 (stereo not drawn) | 200 | 0.794 | 91 | – | – | –
2 | CCCCC[C@H]1C[C@H]2CC[C@@H](C1)N2CCCn1cc(C(C)=O)c2cccc(Br)c21 | 158 | 1.26 | 81 | – | – | –
3 | COc1cccc2c(C(C)=O)cn(CCCN3CCCN(Cc4ccc(F)cc4)CC3)c12 | 15.8 | 1.26 | – | 130 | – | –
4 | CCc1cccc2c(C(C)=O)cn(CCCN3CCC(Oc4cccc(Cl)c4)CC3)c12 | 31.6 | 1.58 | 118 | – | – | –
5 | COc1cccc2c(C(=O)NCC(C)C)cn(CCCN3CCC(Oc4ccc(F)cc4)CC3)c12 | 126 | 1.58 | – | – | 90 | –
6 | COc1cccc2c(C(=O)C3CC3)cn(CCCN3CCC(Oc4cccc(Cl)c4)CC3)c12 | 20 | 1.58 | – | – | 102 | –
7 | CCCCC[C@H]1C[C@H]2CC[C@@H](C1)N2CCCn1cc(C(C)=O)c2cccc(OC)c21 | 316 | 2 | – | 113 | – | –
8 | COc1cccc2c(C#N)cn(CCCN3C4CCC3CC(CCc3ccccc3)C4)c12 (stereo not drawn) | 25.1 | 2 | – | – | 104 | –
9 | COc1cccc2c(C(C)=O)cn(CCCN3CCN(c4ncc(C(F)(F)F)cc4Cl)CC3)c12 | 398 | 2.51 | – | 103 | – | –
10 | COc1cccc2c(C#N)cn(CCCN3CCCN(Cc4ccccc4Cl)CC3)c12 | 12.6 | 2.51 | 137 | – | – | –
11 | COc1cccc2c(C(C)=O)cn(CCCN3CCN(c4ccc(C#N)cc4)CC3)c12 | 631 | 12.6 | 90 | – | – | –
12 | COc1cccc2c(C(=O)Cc3ccccc3)cn(CCCN3C4CCC3CC(CC(=O)c3ccc(Cl)cc3)C4)c12 (stereo not drawn) | 31.6 | – | – | – | 167 | 12.6
13 | CC(=O)c1c(C)n(CCCN2C3CCC2CC(CCc2ccc(Cl)cc2)C3)c2c(Br)cccc12 (stereo not drawn) | 316 | 12.6 | 69 | – | – | –
14 | CC(=O)c1cn(CCCN2CCC(Oc3ccccc3Cl)CC2)c2c(Br)cccc12 | 126 | 12.6 | 96 | – | – | –
15 | COc1cccc2c(C(=O)c3ccccc3)cn(CCCN3CCN(CCOc4ccccc4)CC3)c12 | 251 | – | – | – | 98 | 12.6
16 | COc1cccc2c(C(=O)Cc3ccccc3)cn(CCCN3CCN(CCOc4ccccc4)CC3)c12 | 39.8 | – | – | – | 99 | 12.6
17 | COc1cccc2c(C(C)=O)cn(CCCN3CCC(Oc4ccccc4Cl)CC3)c12 | 794 | 15.8 | – | 98 | – | –
18 | CC(=O)c1cn(CCCN2CCC(Oc3cccc(Cl)c3)CC2)c2ncccc12 | 316 | 15.8 | 124 | – | – | –
19 | CCCCC1CCN(CCCn2cc(C(=O)NCc3cccc(C)c3)c3cccc(OC)c32)CC1 | 316 | – | – | – | 72 | 15.8
20 | COc1cccc2c(C(C)=O)cn(CCCN3CCN(c4ccc(F)cc4)CC3)c12 | 501 | 15.8 | 95 | – | – | –
21 | CC(=O)c1cn(CCCN2C3CCC2CC(Oc2ccc(F)cc2)C3)c2ncccc12 (stereo not drawn) | 501 | 15.8 | 77 | – | – | –

Row | SMILES | Ki (GHSR1a receptor) [nM] | IC50 (Ghrelin receptor; [1]) [nM] | Emax (Ghrelin receptor; [2]) [%] | RSAT Eff(%) (Ghrelin receptor; [2]) | Emax (Ghrelin receptor) [%] | IC50 (Ghrelin receptor; […]) [nM]
22 | CCCCC1CCN(CCCn2cc(C(C)=O)c3cccc(Br)c32)CC1 | 158 | 20 | 87 | – | – | –
23 | COc1cccc2c(C(C)=O)cn(CCCN3CCN(Oc4ccccc4Cl)CC3)c12 | 316 | 20 | 100 | – | – | –
24 | CC(=O)c1cn(CCCN2C3CCC2CC(Oc2ccccc2Cl)C3)c2c(C#N)cccc12 (stereo not drawn) | 200 | 20 | 83 | – | – | –
25 | CC(=O)c1cn(CCCN2CCC(Oc3ccccc3Cl)CC2)c2c(C)cccc12 | 631 | 20 | 110 | – | – | –
26 | CC(=O)c1cn(CCCN2CCC(Oc3cccc(Cl)c3)CC2)c2c(Cl)cccc12 | 100 | 20 | 83 | – | – | –
27 | CCCCC1CCN(CCCn2cc(C(C)=O)c3cccc(OC)c32)CC1 | 1580 | 20 | 116 | – | – | –
28 | CCc1cccc2c(C(C)=O)cn(CCCN3C4CCC3CC(CCc3ccc(Cl)cc3)C4)c12 (stereo not drawn) | 100 | 20 | – | – | 95 | –
29 | COc1cccc2c(C(=O)c3ccccc3)cn(CCCNCCOc3ccccc3)c12 | 158 | – | – | – | 74 | 20
30 | CC(=O)c1cn(CCCN2C3CCC2CC(Oc2ccccc2Cl)C3)c2ncccc12 (stereo not drawn) | 31.6 | 20 | 108 | – | – | –
31 | COc1cccc2c(C(=O)c3ccccc3)cn(CCCN3CCC(Oc4ccc(F)cc4)CC3)c12 | 1260 | – | – | – | 107 | 25.1
32 | COc1ccccc1C1CCN(CCCn2cc(C(=O)NCC(C)C)c3cccc(OC)c32)CC1 | 126 | 25.1 | – | – | 108 | –
33 | COc1cccc2c(C(C)=O)cn(CCCN3CCN(c4ccccc4Cl)CC3)c12 | 2510 | 25.1 | 108 | – | – | –
34 | COc1cccc2c(C(C)=O)cn(CCCN3CCN(c4ccc(C(F)(F)F)cc4)CC3)c12 | 251 | 25.1 | 92 | – | – | –
35 | COc1cccc2c(C(=O)Cc3ccccc3)cn(CCCN3CCCC(Cc4ccccc4Cl)C3)c12 (stereo not drawn) | 126 | – | – | – | 116 | 25.1
36 | Cc1cccc(CNC(=O)n2cc(CCCN3C4CCC3CC(CCc3ccccc3)C4)c3ccccc32)c1 (stereo not drawn) | 158 | 31.6 | 114 | – | – | –
37 | O=C(c1cn(CCCN2C3CCC2CC(CCc2ccccc2)C3)c2ncccc12)C(F)(F)F (stereo not drawn) | 200 | 31.6 | 104 | – | – | –
38 | COc1cccc2c(C(C)=O)cn(CCCN3CCC(Cc4ccccc4)CC3)c12 | 794 | 31.6 | 116 | – | – | –
39 | O=C(c1cn(CCCN2CCCN(Cc3ccccc3Cl)CC2)c2ncccc12)C(F)(F)F | 50.1 | 31.6 | 85 | – | – | –
40 | COc1ccccc1C1CCN(CCCn2cc(C(C)=O)c3cccc(OC)c32)CC1 | 631 | 39.8 | – | 109 | – | –
41 | CC(=O)c1cn(CCCN2CCC(Oc3ccc(F)cc3)CC2)c2c(Cl)cccc12 | 2000 | 39.8 | 120 | – | – | –
42 | COc1cccc2c(C(C)=O)cn(CCCN3CCC(C(=O)c4ccccc4)CC3)c12 | 2000 | 39.8 | – | 98 | – | –

Row | SMILES | Ki (GHSR1a receptor) [nM] | IC50 (Ghrelin receptor; [1]) [nM] | Emax (Ghrelin receptor; [2]) [%] | RSAT Eff(%) (Ghrelin receptor; [2]) | Emax (Ghrelin receptor) [%] | IC50 (Ghrelin receptor; […]) [nM]
43 | COc1cccc2c(C(C)=O)cn(CCCN3CCN(c4ccc(C(F)(F)F)cc4[N+](=O)[O-])CC3)c12 | 631 | 39.8 | 94 | – | – | –
44 | COc1cccc2c(C#N)cn(CCCN3C4CCC3CC(CCc3ccc(Cl)cc3)C4)c12 (stereo not drawn) | 251 | 39.8 | 77 | – | – | –
45 | CC(=O)c1cn(CCCN2CCC(Oc3ccc(Cl)cc3)CC2)c2c(C)cccc12 | 2000 | 39.8 | 101 | – | – | –
46 | COc1cccc2c(C(C)=O)cn(CC(C)CN3CCC(Oc4cccc(Cl)c4)CC3)c12 (stereo not drawn) | 794 | 39.8 | 102 | – | – | –
47 | COc1ccccc1C1CCN(CCCn2cc(C(C)=O)c3cccc(C)c32)CC1 | 1260 | 39.8 | 116 | – | – | –
48 | CC(=O)c1cn(CCCN2C3CCC2CC(Oc2ccc(F)cc2)C3)c2c(C#N)cccc12 (stereo not drawn) | 100 | 50.1 | 93 | – | – | –
49 | COc1cccc2c(C(=O)NCc3cccc(Cl)c3)cn(CCCN3C4CCC3CC(Oc3ccc(Cl)cc3)C4)c12 (stereo not drawn) | 251 | 50.1 | – | 97 | – | –
50 | COc1ccc(C(=O)OC2C[C@H]3CC[C@@H](C2)N3CCCn2cc(C(C)=O)c3cccc(OC)c32)cc1OC (stereo partly drawn) | 1000 | 50.1 | – | – | 104 | –
51 | COc1ccccc1C1CCN(CCCn2cc(C(C)=O)c3cccc(Br)c32)CC1 | 316 | 50.1 | 109 | – | – | –
52 | CC(=O)c1cn(CCCN2C3CCC2CC(Oc2ccc(Cl)cc2)C3)c2c(Cl)cccc12 (stereo not drawn) | 1000 | 50.1 | 104 | – | – | –
53 | CC(=O)c1cn(CCCN2C3CCC2CC(CCc2ccc(Cl)cc2)C3)c2ncccc12 (stereo not drawn) | 398 | 79.4 | 87 | – | – | –
54 | CC(=O)c1cn(CCCN2CCC(C(=O)c3ccccc3)CC2)c2c(Br)cccc12 | 1580 | 79.4 | 84 | – | – | –
55 | COc1cccc2c(C#N)cn(CCCN3C4CCC3CC(Oc3ccccc3Cl)C4)c12 (stereo not drawn) | 631 | 100 | 114 | – | – | –
56 | CC(C)CC(=O)c1cn(CCCN2CCC(Oc3ccc(F)cc3)CC2)c2ccccc12 | 1000 | – | – | – | 93 | 100
57 | CCc1cccc2c(C(C)=O)cn(CCCNCCOc3ccccc3)c12 | 12.6 | 100 | 106 | – | – | –
58 | CCCCC(=O)c1cn(CCCN2CCC(Oc3ccc(Cl)cc3)CC2)c2ccc(OC)cc12 | 251 | 126 | – | – | 111 | –
59 | CC(=O)c1cn(CCCN2CCC(Oc3ccc(Cl)cc3)CC2)c2ccccc12 | 2510 | 126 | 104 | – | – | –
60 | CCCCCC=C1CCN(CCCn2cc(C(C)=O)c3ccccc32)CC1 | 200 | 200 | 139 | – | – | –
61 | CCCCCCC1CCN(CCCn2cc(C(C)=O)c3ccccc32)CC1 | 6310 | 200 | 94 | – | – | –
62 | CC(=O)c1cn(CCCN2CCC(CCC(C)C)CC2)c2ccccc12 | 3980 | 398 | 73 | – | – | –
